Experimental data: the METLIN SMRT retention time set (Domingo-Almenara et al. 2019)

Assay: gradient 5% acetonitrile 3 min, to 50% in 2 min, to 85% in 15 min, held 3 min, 100 µL/min
Settings: column: Zorbax Extend-C18 2.1 x 50 mm; eluents: water / acetonitrile, 0.1% formic acid
Summary of the method: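 Retention times of pure standards were taken from adduct peaks that were selected by computer and manually inspected. Over 3 months, mixtures of ~100 molecules were run by HPLC–quadrupole time-of-flight mass spectrometry in positive and negative ionization mode. The Zorbax Extend-C18 column (2.1 × 50 mm, 1.8 μm) ran at 100 μL/min in water and acetonitrile, each containing 0.1% formic acid, with 40 μL dead volume and 900 μL dwell volume.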

Structure (SMILES) | RP-LC retention time
CCn1cccc1-c1nc(C)c(C(=O)NCCc2ccc(OC)c(OC)c2)s1 | 998 s
Cc1cccc(-c2noc(C3CCCN3C(=O)Nc3ccc(F)cc3)n2)c1 (configuration not stated) | 1010 s
CCC(C)n1c(=O)c2ccccc2n(Cc2nc(-c3ccc(C)cc3)no2)c1=O (configuration not stated) | 1240 s
Cc1ccc(NC(=O)NC2CCN(c3ccc(C)cc3)C2=O)cc1 (configuration not stated) | 853 s
COCCCNC(=O)N1CCN(c2nnc(C)c3c(C)n(-c4ccc(C)cc4)nc23)CC1 | 643 s
O=C(CN1CCN(Cc2ccc(F)cc2)C1=O)NCc1ccc(N2CCCC2)cc1 | 761 s
COc1ccc(Cl)cc1NC(=O)C1CCN(S(=O)(=O)c2cc(C(=O)N(C)C)cs2)CC1 | 889 s
Cc1ccc(-c2ccc(N3CCCC(C(=O)NCC(C)C)C3)nn2)cc1C (configuration not stated) | 737 s
CC(C)CN1C(=O)c2ccccc2C(C(=O)NCc2ccccn2)C1c1cccs1 (configuration not stated) | 632 s
Cc1c(Cl)cccc1NC(=O)NC1CCN(c2cc(N3CCCC3)cnn2)C1 (configuration not stated) | 668 s
COc1ccc2nc(-c3ccc(C)c(NS(=O)(=O)c4cc(C)ccc4OC)c3)cn2n1 | 812 s
Cc1cc(C(=O)Nc2ccc3c(c2)CCC(=O)N3C)no1 | 686 s
O=C(C1CC(=O)N(c2ccc(F)cc2)C1)N1CC(c2nc(-c3ccccn3)no2)C1 (configuration not stated) | 650 s
O=S(=O)(c1ccc2nncn2c1)N(Cc1cc(F)cc(F)c1)c1cc(F)cc(F)c1 | 910 s
Cc1cccc(Sc2nccnc2N2CCCC(C(=O)Nc3ccc(Br)cc3)C2)c1 (configuration not stated) | 1290 s
COC(=O)c1ccc(C2CC(=O)NC3=C2C(=O)C(C(=O)OC)C(C)C3)cc1 (configuration not stated) | 719 s
CCn1cnc2ccc(-c3noc(COc4ccc(F)cc4)n3)cc21 | 754 s
O=C(NC1CCCCC1)c1cccc(Nc2c(-c3ccc(Cl)cc3)nc3cnccn23)c1 | 935 s
CCC(=O)N1CCc2sc(C(=O)N3CCN(c4ccc(OC)cc4)CC3)cc2C1 | 717 s
O=C(COc1ccc(F)cc1)N1CCN(Cc2noc3ccccc23)CC1 | 726 s
COc1ccc(C2CC(=O)N(c3cccc(F)c3)C(=O)C2)cc1OC | 839 s
CN1CC2(CCCC2)N(C(=O)COc2ccc(Cl)cc2)CC1=O | 799 s
CC(C)NC(=O)Cn1c(-c2ccccc2F)nc2ccccc21 | 589 s

Structure (SMILES) | RP-LC retention time
COCc1cc(=O)n(CC(=O)Nc2ccc(C)cc2)c(N)n1 | 595 s
Cc1oc(C2CCN(S(=O)(=O)CCc3ccccc3)CC2)nc1C(=O)N(C)C | 816 s
Cn1c(C(=O)N2CCCc3ccccc32)cc2c(=O)oc3ccccc3c21 | 988 s
Cc1ccc(NC(=O)C(=O)NCC2(O)CCOCC2)cc1N1CCCC1=O | 575 s
NC(=O)CSc1nnc(N2CCN(C(=O)c3ccccc3Cl)CC2)s1 | 596 s
Cn1c(N2CCCC(C(=O)N3CCN(Cc4ccccc4)CC3)C2)cc(=O)n(C)c1=O (configuration not stated) | 597 s
COc1ccc(OC)c(NC(=O)N2CCN(c3cc(C)nc(N4CCCC4)n3)CC2)c1 | 676 s
CCOc1ccc(-c2nc(C3CC(=O)N(c4ccc(F)cc4)C3)no2)cc1 (configuration not stated) | 1010 s
Cc1ccc(F)cc1NS(=O)(=O)c1cc2n(c1)CCCN(C)C2=O | 716 s
CC1CCN(C(=O)c2cccn2Cc2noc(-c3ccc(Cl)cc3)n2)CC1 | 1200 s
CSc1ccc(CNC(=O)Cn2c(=O)cc(-c3nc(C4CC4)no3)c3ccccc32)cc1 | 962 s
Cc1noc(C)c1CCC(=O)N1CCCCC1c1nncn1CC1CC1 (configuration not stated) | 655 s
O=C(c1ccsc1)N(CCc1ccccc1)Cc1ccccn1 | 684 s
O=C(Nc1ccc2cn[nH]c2c1)C1c2ccccc2Oc2ccccc21 | 795 s
CC(C)c1ccc(OCC(=O)Nc2cc3c(cc2N2CCOCC2)n(C)c(=O)c(=O)n3C)cc1 | 921 s
Cc1nnsc1C(=O)N1CCC(C(=O)NCC(F)(F)F)CC1 | 614 s
O=C(NC1CCCC1)c1cccnc1N1CCCCC1 | 684 s
COc1cc(NC(=O)C(C)Oc2ccc(=O)n(-c3ccc(F)cc3)n2)cc(OC)c1 (configuration not stated) | 794 s
Cc1ccc(N2CC(NC(=O)Nc3ncccc3C)CC2=O)cc1 (configuration not stated) | 573 s
COc1ccc(-c2noc(CN3C(=O)COc4ccc(Cl)cc43)n2)c(OC)c1 | 962 s
COC(=O)c1ncn2c1C(=O)N(C1CC1)C(C)(C(=O)NCc1cccc(C)c1)C2 (configuration not stated) | 658 s
CCOC(=O)N1CCN(Cc2nc(-c3ccc(N4CCC(C)CC4)nc3)no2)CC1 | 847 s
O=C(NCC1CCCO1)c1ncoc1-c1ccccc1C(=O)N1CCCCC1 (configuration not stated) | 692 s

Structure (SMILES) | RP-LC retention time
Cc1cc(C(=O)N2CCc3nn(C)c(=O)n3CC2)n[nH]1 | 560 s
COc1cccc(S(=O)(=O)N2CCC3(CC2)N(C)C(=O)CS3=O)c1 (configuration not stated) | 653 s
COC(=O)Nc1ccc(CC(=O)NC2CC2)cc1 | 592 s
Cc1cccc(NC(=O)C2CCCN(S(=O)(=O)c3c[nH]c(C(=O)N4CCCCCC4)c3)C2)c1 (configuration not stated) | 922 s
CC(C)C(=O)Nc1ccc(OCc2cc(C(=O)NC3CCCC3)no2)cc1 | 837 s
CCCN1C(=O)c2c(C(=O)NCCc3ccccc3)ncn2CC1(C)C(=O)NC1CCCC1 (configuration not stated) | 860 s
CN(C)CCNC(=O)Cn1c2ccccc2c2cnn(C)c(=O)c21 | 576 s
CCn1cnc(S(=O)(=O)N2CCCC(C(=O)Nc3cc(C)cc(C)c3)C2)c1 (configuration not stated) | 803 s
COc1ccc(-c2nc(C)cc(C)c2CNS(=O)(=O)c2cccc(C)c2)cc1 | 668 s
COc1ccc(-c2nnc(N3CCC(C(=O)N4CCN(C)CC4)CC3)o2)cc1 | 582 s
CCc1csc(-c2ccc(N3CCN(C(=O)c4cccs4)CC3)nc2)n1 | 900 s
Cc1cc(=O)n(CC(=O)NCc2ccccc2Cl)c(N2CCOCC2)n1 | 662 s
O=C(CN1C(=O)CSCC1=O)Nc1ccc2c(c1)OCO2 | 638 s
O=C(Cn1ncc2c(c1=O)N(CC1CC1)C(=O)CS2)Nc1ccccc1C(F)(F)F | 831 s
CCc1ccc(CNC(=O)Cn2ccc3ccc(N4CCOCC4)nc32)cc1 | 969 s
COc1ccccc1CCC(=O)NCC(=O)Nc1nc2ccccc2[nH]1 | 652 s
O=C(NCc1cccnc1)C1CC(=O)N(CCc2c[nH]c3ccc(Cl)cc23)C1 (configuration not stated) | 613 s
CCc1ccc(-c2noc(Cn3c(=O)n(-c4ccc(Cl)cc4)c(=O)c4sccc43)n2)cc1 | 1160 s
COc1ccc(C)cc1NS(=O)(=O)c1ccc(-c2nnc(C3CCC3)o2)o1 | 922 s
CC1CN=C2C=C(N3CCN(C(=O)Nc4ccccc4C(F)(F)F)CC3)N=CN21 (configuration not stated) | 615 s
COC(=O)C1=CN(c2ccc(C(=O)OC)cc2)c2ccccc2S1(=O)=O | 747 s
